Data on 17 molecules can be found in patent publication US20180327367A1, “MACROCYCLIC BROAD SPECTRUM ANTIBIOTICS” (priority 2015, published 2018).

Values after ≈ are worked out from the molar mass of the structure shown. Where two headings read alike, the source gives them in different places. Where only a bound is given, the exact number is not on record here.

For test [1], the system named is Escherichia coli strain ATCC 25922. Briefly: Neutropenic thigh infection model. The test is classed as in vivo. The following applies: neutropenic CD-1 mice, E. coli ATCC 25922, infusion 23 hours, 24 hours post infection, FIG. 1. The method, then:
The ability of a compound to inhibit an infection of a bacterial pathogen can be measured using a murine neutropenic thigh infection model. The reduction of bacterial burden is a measure of antibacterial activity in vivo.
Jugular vein cannulated CD-1 mice were subjected to induced neutropenia (<100 cells/mm^3) by injecting 150 mg/kg and 100 mg/kg cyclophosphamide at day −5 and day −2 respectively. At day −1, saline was infused at […] for 12 hours using Harvard Apparatus PHD 2000 Infusion pumps. At day 0, mice were infected in the thigh muscle with 1×10^5 CFU/50 μL of Escherichia coli strain ATCC 25922. […]
At 24 hours post infection, bacterial burden in the thigh muscle was determined by plating the tissue homogenate in serial dilutions on blood agar plates.

The subject of test [2] is Escherichia coli MC4100 harboring the IMP4213 (E. coli IMP). Briefly: microbe, parasite or virus in culture. The test is classed as cell-based. The following applies: Escherichia coli, 22 h. The method, boiled down: (§1)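 Ten-point 2-fold series began at 4 μg/mL in protocol 2 and 0.5 μg/mL in protocol 3, in cation-adjusted MHB plus 0.002% Tween-80. Bacteria added to OD600 0.0005 final and incubated at 35° C for 22 hours per CLSI microdilution.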

In test [3] the test system is Methicillin Resistant Staphylococcus aureus strain USA 300, NRS384. Briefly: Minimum inhibitory concentration, broth micro-dilution (CLSI), S. aureus. The test is classed as cell-based. To be noted: Staphylococcus aureus, MRSA / NRS 384 / USA300, 22 h. The method, boiled down: as §1
Background: Dilution methods test growth across graded concentrations, often in twofold steps.

Test [4] concerns the target T1, SpsB (Staphylococcus aureus signal peptidase) (Staphylococcus aureus, UniProt P0A070).
T1 construct: This assay uses a suspension of Staphylococcus aureus cells as a source of SpsB instead of recombinant SpsB protein; endogenous in cells; host or cells: S. aureus, USA300 background, overexpressing SpsB (whole-cell suspension from frozen pellets)
Briefly: cell-based. The test is classed as biochemical. To be noted: SpsB IC50, whole-cell S. aureus (USA300 background, overexpressing SpsB) as SpsB source; fluorogenic peptide substrate, kinetic read 30 min. The method, boiled down: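 Cleavage of an internally quenched (Dabcyl)βAla-KPAKAAE(Edans) peptide, added as 20 μM solution mixed 1:1 with cells, was followed for 30 min at 340/490 nm. SpsB came from a suspension of SpsB-overexpressing USA300 S. aureus in Tween-80-containing PBS buffer. Slopes plotted against 3-fold compound dilutions gave IC50.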

The subject of test [5] is Escherichia coli ATCC 25922. Briefly: Minimum inhibitory concentration, broth micro-dilution (CLSI), E. coli. To be noted: Escherichia coli, ATCC25922, 22 h. The test is classed as cell-based.
Where [6] appears, read: read-out: MIC (μg/mL) E. coli IMP, E. coli MC4100 IMP4213, increased outer-membrane permeability, 35° C., 22 hours.
Where [7] appears, read: MRSA USA 300 NRS384, 35° C., 22 hours, read-out: MIC (μg/mL) S. aureus.
Setting [8] is: E. coli ATCC 25922, 35° C., 22 hours, read-out: MIC (μg/mL) E. coli.
[9] abbreviates: read-out: MIC (μg/mL) S. aureus, MRSA USA 300 NRS384, 35° C., 22 hours.
The mark [10] stands for this setting: read-out: MIC (μg/mL) E. coli, E. coli ATCC 25922, 35° C., 22 hours.

T1 sequence (P0A070 whole entry): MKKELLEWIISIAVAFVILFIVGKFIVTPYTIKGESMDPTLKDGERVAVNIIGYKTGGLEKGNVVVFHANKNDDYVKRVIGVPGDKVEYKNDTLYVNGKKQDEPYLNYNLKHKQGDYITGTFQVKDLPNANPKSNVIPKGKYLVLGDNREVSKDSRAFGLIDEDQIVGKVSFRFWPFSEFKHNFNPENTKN

In the case of `CCCCc1ccc(-c2ccc(C(=O)N[C@@H](CCCN)C(=O)N(C)[C@@H]3C(=O)N[C@@H](C)C(=O)N[C@H](C(=O)NCC#N)Cc4ccc(OCCN)c(c4)-c4cc3ccc4OCCN)cc2)cc1` [Compound 135], the “bacterial burden in the thigh muscle” value in test [1] is “dose-dependent reduction in bacterial burden”. The MIC in test [2] (setting [6]) turned out to be 0.023 µg/mL (≈ 0.0259 µM); in test [3] (setting [7]), 0.052 µg/mL (≈ 0.0586 µM); in test [5] (setting [8]), 0.22 µg/mL (≈ 0.248 µM). In test [4], 0.54 nM corresponded to half-maximal inhibition (IC50).
On to `CCCCCCCCCCNCCC(=O)N[C@@H](CO)C(=O)N(C)[C@@H]1C(=O)N[C@@H](C)C(=O)N[C@H](C(=O)NCC#N)Cc2ccc(O)c(c2)-c2cc1ccc2O` [Compound 469], for which the results for the MIC in test [2] (setting [6]), in test [3] (setting [7]) and in test [5] (setting [8]) were more than 4 µg/mL, 4 µg/mL (≈ 5.33 µM) and more than 64 µg/mL, respectively. In test [4], the IC50 (as a rule, the concentration needed to halve the response being measured) stood at 5 nM.
In the case of `CCCCCCCCc1ccc(C(=O)N[C@@H](CCCCN)C(=O)N(C)[C@@H]2C(=O)N[C@@H](C)C(=O)N[C@H](C(=O)NCC#N)Cc3ccc(OC)c(c3)-c3cc2ccc3OC)cc1` [Compound 470], the MIC in test [2] (setting [6]) is 0.5 µg/mL (≈ 0.607 µM); in test [3] (setting [7]) it was 3 µg/mL (≈ 3.64 µM); in test [5] (setting [8]), more than 64 µg/mL. This molecule registered an IC50 in test [4] of 24 nM.
For `CCCCCCCCc1ccc(C(=O)N[C@@H](CCCN)C(=O)N(C)[C@@H]2C(=O)N[C@@H](C)C(=O)N[C@H](C(=O)NCC#N)Cc3ccc(OC)c(c3)-c3cc2ccc3OC)c(OC)c1` [Compound 473], the MIC in test [2] (setting [6]) was 0.25 µg/mL (≈ 0.298 µM); in test [3] (setting [7]) it was 1.5 µg/mL (≈ 1.79 µM); in test [5] (setting [8]) it was more than 64 µg/mL. In test [4], 39 nM corresponded to half-maximal inhibition (IC50).
For `CCCCCCCCCCCCCC(=O)N(C)[C@@H]1C(=O)N[C@@H](C)C(=O)N[C@H](C(=O)NCC#N)Cc2ccc(OCCN)c(c2)-c2cc1ccc2OCCN` [Compound 475] the same measures were 0.5 µg/mL (≈ 0.668 µM), 1 µg/mL (≈ 1.34 µM), 6 µg/mL (≈ 8.02 µM) and 18 nM.
On the same counts, the results for `CCCCCCCCc1ccc(C(=O)N(C)[C@@H]2C(=O)N[C@@H](C)C(=O)N[C@H](C(=O)NCC#N)Cc3ccc(OCCN)c(c3)-c3cc2ccc3OCCN)cc1` [Compound 476] are 8 µg/mL (≈ 10.6 µM), 2 µg/mL (≈ 2.65 µM), 32 µg/mL (≈ 42.4 µM) and 86 nM.
On to `CCCCc1ccc(-c2ccc(C(=O)N[C@@H](CC3CCNCC3)C(=O)N(C)[C@@H]3C(=O)N[C@@H](C)C(=O)N[C@H](C(=O)NCC#N)Cc4ccc(OCCN)c(c4)-c4cc3ccc4OCCN)cc2)cc1` [Compound 477], for which the MIC in test [2] (setting [6]) was 0.063 µg/mL (≈ 0.0679 µM); in test [3] (setting [7]), 0.063 µg/mL (≈ 0.0679 µM); in test [5] (setting [8]), 4 µg/mL (≈ 4.31 µM). In test [4], this molecule showed an IC50 of 0.68 nM.
For `CCCCc1ccc(-c2ccc(C(=O)N[C@@H](Cc3c[nH]cn3)C(=O)N(C)[C@@H]3C(=O)N[C@@H](C)C(=O)N[C@H](C(=O)NCC#N)Cc4ccc(OCCN)c(c4)-c4cc3ccc4OCCN)cc2)cc1` [Compound 478], the MIC in test [2] (setting [6]) turned out to be 0.19 µg/mL (≈ 0.209 µM); in test [3] (setting [7]), 0.19 µg/mL (≈ 0.209 µM); in test [5] (setting [8]), 6 µg/mL (≈ 6.59 µM). In test [4], this molecule came in with a half-maximal inhibitory concentration (IC50) of 1.5 nM.
Take `CCCCCCc1ccc(C(=O)N2C[C@@H](N)CC2C(=O)N(C)[C@@H]2C(=O)N[C@@H](C)C(=O)N[C@H](C(=O)NCC#N)Cc3ccc(OCCN)c(c3)-c3cc2ccc3OCCN)c(C)c1` (stereo partly drawn) [Compound 480]: the MIC was 0.012 µg/mL (≈ 0.0141 µM) in test [2] (setting [6]), 0.19 µg/mL (≈ 0.223 µM) in test [3] (setting [7]) and 0.5 µg/mL (≈ 0.587 µM) in test [5] (setting [8]). In test [4], this molecule registered an IC50 of 0.92 nM.
As for `CCCCCCCCCCCCCC(=O)N1C[C@@H](N)CC1C(=O)N(C)[C@@H]1C(=O)N[C@@H](C)C(=O)N[C@H](C(=O)NCC#N)Cc2ccc(OCCN)c(c2)-c2cc1ccc2OCCN` (stereo partly drawn) [Compound 481], the MIC stood at 0.0078 µg/mL (≈ 0.00907 µM) in test [2] (setting [6]), 0.047 µg/mL (≈ 0.0546 µM) in test [3] (setting [7]) and 0.25 µg/mL (≈ 0.291 µM) in test [5] (setting [8]). Moreover, the midpoint of inhibition in test [4], the IC50, lay at 1.2 nM.
As for `C[C@@H]1NC(=O)[C@@H](N(C)C(=O)[C@H](CCCCN)NC(=O)c2ccc(-c3ccc(Cl)cc3)cc2)c2ccc(OCCN)c(c2)-c2cc(ccc2OCCN)C[C@@H](C(=O)NCC#N)NC1=O` [Compound 482], the MIC is 0.13 µg/mL (≈ 0.148 µM) in test [2] (setting [6]), 0.13 µg/mL (≈ 0.148 µM) in test [3] (setting [9]) and 16 µg/mL (≈ 18.2 µM) in test [5] (setting [10]). The same molecule gave an IC50 in test [4] of 1.6 nM.
As for `C[C@@H]1NC(=O)[C@@H](N(C)C(=O)[C@H](CCCCN)NC(=O)c2ccc(-c3ccc(Cl)cc3)cc2)c2ccc(OCCN)c(c2)-c2cc(ccc2OCCN)C[C@@H](C(=O)N[C@@H](C)C#N)NC1=O` [Compound 483], the MIC in test [2] (setting [6]) was 0.5 µg/mL (≈ 0.559 µM); in test [3] (setting [9]), 2 µg/mL (≈ 2.24 µM); in test [5] (setting [10]), 48 µg/mL (≈ 53.7 µM). Besides, the IC50 in test [4] stood at 6.8 nM.
Take `CCCCCCCCCCCC(=O)N[C@@H](C[C@@H]1CCCN1)C(=O)N(C)[C@@H]1C(=O)N[C@@H](C)C(=O)N[C@H](C(=O)NCC#N)Cc2ccc(OCCN)c(c2)-c2cc1ccc2OCCN` [Compound 484]: the figures for the MIC in test [2] (setting [6]), in test [3] (setting [7]) and in test [5] (setting [8]) were 0.063 µg/mL (≈ 0.0732 µM), 0.063 µg/mL (≈ 0.0732 µM) and 8 µg/mL (≈ 9.3 µM), respectively. Further, the concentration for half-maximal inhibition (IC50) in test [4] was 1 nM.
On to `CCCCc1ccc(-c2ccc(C(=O)N[C@@H](CCCCN)C(=O)N(C)[C@@H]3C(=O)N[C@@H](C)C(=O)N[C@H](C(=O)NC4(C#N)CC4)Cc4ccc(OCCN)c(c4)-c4cc3ccc4OCCN)cc2)cc1` [Compound 494], for which the figures for the MIC in test [2] (setting [6]), in test [3] (setting [7]) and in test [5] (setting [8]) were 0.5 µg/mL (≈ 0.539 µM), 1 µg/mL (≈ 1.08 µM) and 16 µg/mL (≈ 17.2 µM), respectively. This molecule also came in with an IC50 in test [4] of 2.1 nM.
As for `CCCCc1ccc(-c2ccc(C(=O)N[C@@H](CCCCN)C(=O)N(C)[C@@H]3C(=O)N[C@@H](C)C(=O)N[C@H](C(=O)NC4(C#N)CC4)Cc4ccc(O)c(c4)-c4cc3ccc4OCCN)cc2)cc1` [Compound 495], the MIC in test [2] (setting [6]) came out at 1 µg/mL (≈ 1.13 µM); in test [3] (setting [7]), 3 µg/mL (≈ 3.39 µM); in test [5] (setting [8]), 16 µg/mL (≈ 18.1 µM). It took 20 nM to reach half-maximal inhibition in test [4] (IC50).
For `CCCCc1ccc(-c2ccc(C(=O)N[C@@H](CCCCN)C(=O)N(C)[C@@H]3C(=O)N[C@@H](C)C(=O)N[C@H](C(=O)NC(C)(C)C#N)Cc4ccc(OCCN)c(c4)-c4cc3ccc4OCCN)cc2)cc1` [Compound 496] the same measures were 0.5 µg/mL (≈ 0.538 µM), 3 µg/mL (≈ 3.23 µM), 16 µg/mL (≈ 17.2 µM) and 17 nM.
Turning to `CCCCc1ccc(-c2ccc(C(=O)N[C@@H](CCCN)C(=O)N(C)[C@@H]3C(=O)N[C@@H](C)C(=O)N[C@H](C(=O)N4CC4C#N)Cc4ccc(OCCN)c(c4)-c4cc3ccc4OCCN)cc2)cc1` (stereo partly drawn) [Compound 520], the MIC in test [2] (read-out: MIC (μg/mL) E. coli IMP) amounted to 0.19 µg/mL (≈ 0.211 µM); in test [3] (read-out: MIC (μg/mL) S. aureus), 0.38 µg/mL (≈ 0.422 µM); in test [5] (read-out: MIC (μg/mL) E. coli) it was 6 µg/mL (≈ 6.67 µM). This molecule also gave an IC50 in test [4] of 0.73 nM.
